Values quoted from earlier work in US20250049733A1, “PHARMACEUTICAL COMPOSITION FOR THE TREATMENT OF INFECTIOUS RESPIRATORY DISEASES CAUSED BY INFLUENZA AND SARS-COV-2, AMONG OTHERS” (ALPARIS, S.A. DE C.V., priority 2021, published 2025).
Values after ≈ are worked out from the molar mass of the structure shown.

Key:
[1] = system: Respiratory Syncytal Virus (RSV)
[2] = system: tumor necrosis factor-alpha (TNF-α) and interleukin-6 (IL-6); conditions: randomized controlled trials
rheumatoid arthritis = conditions: 8 weeks of treatment with 1 g of curcumin daily; meta-analysis
[3] = in vivo

## COc1cc(/C=C/C(=O)CC(=O)/C=C/c2ccc(O)c(OC)c2)ccc1O [curcumin, (1E,6E)-1,7-bis(4-hydroxy-3-methoxyphenyl)-1,6-heptadiene-3,5-dione]
SARS-CoV2 viruses
  IC50, antiviral action against SARS-CoV2: 7.9 µg/mL (≈ 21.4 µM)
[1]
  IC50, antiviral action against Respiratory Syncytal Virus (RSV): 10 µg/mL (≈ 27.1 µM)
influenza
  IC50, antiviral action against influenza: 0.17 µg/mL (≈ 0.461 µM)
Hepatitis
  IC50, antiviral action against Hepatitis: 1.68 µg/mL (≈ 4.56 µM)
Herpes simplex virus
  IC50, antiviral action against Herpes simplex virus: 11.05 µg/mL (≈ 30 µM)
[2]
  secretion of TNF-α and IL-6: significantly reduces
Rheumatoid arthritis
  symptoms associated with inflammation in rheumatoid arthritis: can reduce symptoms associated with inflammation
[3]
  half-life: about 8 hours
